“Also recorded” adds a separate entry of the source.
Key:
CCR1 (Homo sapiens) = biological target: T1, CCR1 (Homo sapiens); experiment: Equilibrium competition receptor binding assay (SPA), [125I]-CCL5 on CHO/CCR1 membranes; details: [125I]-CCL5 0.1 nM, CHO/CCR1 membranes, SPA; read-out: IC50 for the inhibition of CCL5 binding to CCR1
T1 construct: expressed in transfected cells; host or cells: CHO
Protocol: (§1) The assays were carried out on membranes from CHO transfectants expressing CCR1 or CCR5, as described previously (Severin et al., [2010]). Briefly, serial dilutions of the compounds were prepared in binding buffer (50 mM TrisHCl, pH 7.2, containing 1 mM CaCl2, 5 mM MgCl2, and 0.5% BSA). Equal volumes of membrane preparation at 80 μg/ml and scintillation proximity assay (SPA) beads were mixed before adding them to a 96 well filter plate, giving a final membrane concentration in the assay of 20 μg/ml. ^125I labeled chemokines were dissolved in binding buffer at a concentration of 0.4 nM. The assay was started by the addition of 25 μL [^125I]-CCL5 to give a concentration of 0.1 nM, in a final assay volume of 100 μL. The plates were incubated for 4 h. Radioactivity was counted with a beta counter for 1 min/well and the data analyzed using Graphpad Prism software. The radioligand was stored at −20°C and was used until the cpm of bound chemokine was ≥ 300 cpm.

CCR1 = biological target: T2, CCR1 (Homo sapiens, UniProt P13501); experiment: as above; details: relative to Molecule 1
T2 construct: expressed in transfected cells; host or cells: CHO
T2 sequence (P13501 24-91): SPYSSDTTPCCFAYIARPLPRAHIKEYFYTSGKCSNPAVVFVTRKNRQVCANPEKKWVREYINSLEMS
Protocol: as §1

[1] = tested on: CCL5-induced cellular recruitment into the peritoneal cavity; experiment: CCL5-induced peritoneal cellular recruitment; assay type: in vivo, mouse; details: CCL5 binders administered 30 min prior to CCL5 (Figure 4A, B)
CCL5 binding to heparin = biological target: T3, CCL5 binding to heparin (Homo sapiens, UniProt P13501); experiment: Immobilized heparin competition binding assay ([125I]-CCL5 on heparin-Sepharose beads); details: [125I]-CCL5 0.05 nM, 4 h, read-out: IC50 for the inhibition of CCL5 binding to heparin
T3 sequence (P13501 24-91): T2 sequence (P13501 24-91)
Protocol: Competition experiments were performed as described elsewhere (Severin et al., [2010]). Briefly, heparin-Sepharose beads (Sepharose beads or binding buffer as a background control) and increasing amounts of antagonist were added to each well of a 96 well filter plate. [^125I]-CCL5, was added last, to reach a final concentration of 0.05 nM. The plates were incubated on a shaker at room temperature for 4 h. Each experiment was performed in triplicate, and the results are given as the mean of the three assays.

[2] = tested on: citrated plasma from healthy human blood donors; experiment: Anti-coagulation assay: Activated Partial Thromboplastin Time (APTT)
Protocol: Activated Partial Thromboplastin Time (APTT) assays were performed by GlycoMar. 10 mg/ml stock solutions of NisS, StachS, and MHxS, were prepared using dH2O and stored at −20°C until use. Samples were tested at 1 mg/ml. All further dilutions were in dH2O. Prior to each assay, a calibration curve of heparin ranging from 0 to 10 IU/ml was prepared using 5th International Standard Heparin. (GlycoMar ID:92, batch 97/578, Expiry 21SEP10). Fresh human blood from healthy human blood donors was collected into S-Monovette Coagulation tubes from Sarstedt. Nine parts of freshly drawn venous blood were collected into one part trisodium citrate (0.106 M). Plasma was obtained by centrifugation at 1500 × g for 10 min. Each of the carbohydrate samples was diluted and tested at 1 mg/ml in the first instance. MHxS was subsequently tested at 0.1 mg/ml to be within the time frame of the standard curve. The APTT assay was run on an ACL 9000 Coagulation Analyzer. The coagulation time of HemosIL Normal Control (cat no. 0020003110) was checked. Samples, standards and controls were mixed 1:10 with citrated plasma in a test tube, loaded into the ACL 9000 carousel and analyzed using the extended APTT run program.

[3] = tested on: thioglycollate-induced cellular recruitment into the peritoneal cavity; experiment: Thioglycollate-induced peritoneal cellular recruitment; assay type: in vivo, C3H/Hen mice; details: thioglycollate i.p.; compound i.p. 30 min before and 24 h later; cells counted at 48 h (Figure 4C, D)
Protocol: CCL5-induced peritoneal recruitment was performed as described (Johnson et al., [2004]). Thioglycollate-induced cellular recruitment was mediated by the administration of 40 mL/kg of 3% thioglycollate i.p. in 7- to 8-week-old female C3H/Hen mice (JANVIER). Sham mice were injected with 40 mL/kg of NaCl (0.9%, LPS free). Saline (vehicle, control group) or Maltohexaose Sulfate at doses ranging from 1 to 0.01 mg/kg diluted in a volume ratio of 10 mL/kg and were administered i.p. 30 min before the thioglycollate stimulus, and 24 h later. An additional group of mice was injected with a single dose of 3 mg/kg dexamethasone 1 h before challenge as a reference control. Mice were sacrificed 48 h post-thioglycollate injection, the peritoneal cavity was washed twice with 5 mL of […] EDTA solution in PDB, pH 7.4. The peritoneal lavage fluid was centrifuged and resuspended in 1 mL of the solution and recruited cells were counted with a cell counter (Beckman-Coulter, ACT5Diff AD32097).
Figure 4 Inhibition of peritoneal cellular recruitment. Cellular recruitment into the peritoneal cavity was induced by CCL5 (A) and (B) and inhibited by different doses of CCL5 binders administered 30 min prior to the CCL5 administration. […]

[4] = tested on: paw thickness after SRBC challenge; experiment: Delayed-type hypersensitivity (DTH) model, SRBC; assay type: in vivo, BALB/c mice
Protocol: Female BALB/c mice were immunized with 2 × 10^6 sheep red blood cells (SRBC) by subcutaneous route (s.c.) at the base of the tail. Five days later mice were challenged with an s.c. injection of 2 × 10^6 SRBC into the softpaw of the left hindpaw. The paw thickness was measured 21 h later and the difference calculated based on values obtained before challenge. MHxS, NisS, and StachS were injected s.c. at a dose of 10 mg/kg, 30 min before and 8 h after challenge. Vehicle was 0.02% BSA diluted in PBS. The reference compound, dexamethasone, was diluted in saline and administered by oral gavage 30 min before challenge. Group sizes were 6 for sham and 8 for all other groups.
Figure 5 Inhibition of delayed-type hypersensitivity. Immunization was performed by s.c. administration of SRBC, followed by a challenge in the hindpaw 5 days later. The persulfated oligosaccharides (10 mg/kg) were administered 30 min prior and 8 h after the challenge. Dexamethasone was used as a positive control, and paw thickness was measured 21 h following the challenge. The statistical differences vs. the control group (mice challenged with SRBC and treated with vehicle for the compounds 0.02% BSA diluted in PBS) are shown whenever present and indicated by ^*P <0.05>; ^***P < 0.001. TEXT PRINTED IN THE PICTURE: dexamethasone: 47% *** | MHxS: 39% *** | NisS: 20% * | StachS: 41% ***

[5] = tested on: leukocyte recruitment into the synovial (knee) cavity; experiment: Antigen-induced arthritis (AIA) model, mBSA; assay type: in vivo, mice; details: 50 μg s.c. immediately after mBSA; cells counted at 24 h
Protocol: Induction of disease was performed by injection of 10 μg methylated bovine serum albumin (mBSA) as a 10 μL injection into the synovial cavity. Test compounds, at a total dose of 50 μg were injected in a total volume of 200 μL subcutaneously immediately after mBSA administration. Group sizes were 4–6 animals. Total leukocytes (A), neutrophils (B), and mononuclear cells (C) in the synovial cavity were enumerated 24 h after mBSA injection (Sachs et al., [2011]).
Figure 6 Inhibition of antigen induced arthritis. An injection of mBSA into the synovial cavity was used to induce disease. 50 μg of the inhibitors were administered s.c. immediately after the mBSA injection, and the cells in the synovial cavity were enumerated 24 h later. (A) Total cells; (B) […]; (C) mononuclear cells. ^*P < 0.05.

Compound | IC50 (CCR1 (Homo sapiens)) | tighter interaction than Molecule 1 in the CCR1 binding assay (CCR1) | cell recruitment to the peritoneum [1] | IC50 (CCL5 binding to heparin) | Anticoagulant activity (heparin-equivalent) ([2]; calibrated against heparin standard curve, samples at 1 mg/ml (MHxS 0.1 mg/ml)) | anticoagulant potency reduced compared to heparin ([2]; relative to heparin) | cell recruitment to the peritoneal cavity [3] | reduction of paw thickness compared with dexamethasone ([4]; 10 mg/kg s.c. at −30 min and +8 h) | inhibition of paw thickness, dose-response ([4]; 0.1, 1 and 10 mg/kg at −30 min and +8 h post-challenge, data not shown) | inhibition of paw swelling ([4]; oligosaccharides 10 mg/kg s.c. at −30 min and +8 h, dexamethasone by oral gavage 30 min before challenge, paw thickness at 21 h) | mononuclear cell recruitment into the knee cavity [5] | neutrophil recruitment into the knee cavity [5]
O=C(CCCCCCCCCCNS(=O)(=O)c1ccc(O)c(C(=O)O)c1)Nc1cc(C(=O)O)c(O)c(S(=O)(=O)O)c1 [Molecule 3, 5-[(11-{[(3-carboxy-4hydroxyphenyl)sulfonyl]amino}undecanoyl)amino]-2-hydroxy-3-sulfobenzoic acid] | 2500 nM | 3 fold | enhancement of cell recruitment; also recorded: no inhibition of recruitment, rather an enhancement at the highest dose |  |  |  |  |  |  |  |  | 
persulfated MHx [MHxS] |  |  |  | 1270 ± 670 nM | 11.87 ± 3.07 IU/mg | 12 fold | enhanced recruitment, albeit moderately | comparable effect | statistically significant inhibitions were shown only for the highest dose | 39% | statistically significant reduction | statistically significant reduction
